Here are results for 2 compounds from US20130005568A1, “SAFENED HERBICIDAL MIXTURES” (E.I. DU PONT DE NEMOURS AND COMPANY, priority 2011, published 2013).

The subject of one data set is Goosegrass. Briefly: Test G: turf grass and weed postemergence plant response rating. The data set is classed as in vivo, Eleusine indica (L.) Gaertn. The note with it: Goosegrass, postemergence, greenhouse, three weeks, 0-100 scale. An excerpt:
(§1) For all of the following biological tests, plant response ratings were based on a 0-100 scale where zero is growth equivalent to that of untreated plants (no plant response) and 100 represents no additional growth occurring after herbicide treatment.
(§2) Plants of the turf grass species: zoysia (Zoysia japonica Steud.), bermudagrass (Cynodon dactylon (L.) Pers.), tall fescue (Festuca arundinacea Shreib.), creeping bentgrass (Agrostis stoonoifera L.), perennial ryegrass (Lolium perenne L.) and hard fescue (Festuca species) were grown under greenhouse conditions for four months. Plants were clipped as needed to plant heights of 5-10 cm. Weeds typically found in turf: annual bluegrass (Poa annua L.), common chickweed (Stellaria media (L.) Vill.), large crabgrass (Digitaria sanguinales (L.) Scop.), dandelion (Taraxacum officinale Weber in Wiggers), goosegrass (Eleusine indica (L.) Gaertn.), henbit (Lamium amplexicaule L.), venice mallow (Hibiscus trionium L.) and purple nutsedge (Cyperus rotundus L.) were also grown under greenhouse conditions so that plants were 5-20 cm tall when they were treated. Herbicide mixtures were formulated, dissolved/dispersed in water containing 0.25% non-ionic surfactant, and sprayed postemergence to these turf grasses and weeds. Treated plants were grown under greenhouse conditions for three weeks before visual evaluations of plant responses were recorded.

Another data set concerns Henbit. The data set is described as above. The class given is in vivo, Lamium amplexicaule L. The note with it: Henbit, postemergence, greenhouse, three weeks, 0-100 scale.
Source text: as §1, §2

Another data set relates to Purple nutsedge. The data set is described as above. The class given is in vivo, Cyperus rotundus L. As to conditions: Purple nutsedge, postemergence, greenhouse, three weeks, 0-100 scale.
Source text: as §1, §2

The next data set deals with Dandelion. Described as above. The class given is in vivo, Taraxacum officinale Weber in Wiggers. As to conditions: Dandelion, postemergence, greenhouse, three weeks, 0-100 scale.
Source text: as §1, §2

In data set [1] the test system is Pioneer 39K40 hybrid maize. Put plainly: Test A: visual plant response rating, postemergence herbicide treatments alone and with Compound 1. The class given is in vivo, Zea mays L. spp. indentata Sturt. The note with it: in vivo. How it is done:
as §1
Pioneer 39K40 hybrid maize used in this test (and also Tests B and C) is particularly sensitive to herbicides that inhibit the acetohydroxy acid synthase enzyme. Herbicide mixtures were dissolved/dispersed in a non-phytotoxic liquid carrier and were sprayed postemergence to Pioneer 39K40 hybrid maize (Zea mays L. spp. indentata Sturt.) in the third collar growth stage (extended leaf height was 50-60 cm). Treated plants were grown under greenhouse conditions for two weeks before visual evaluations of plant responses were recorded.

The test system of the next data set is Venice mallow. Briefly: Test G: turf grass and weed postemergence plant response rating. The data set is classed as in vivo, Hibiscus trionium L. The note with it: Venice mallow, postemergence, greenhouse, three weeks, 0-100 scale.
Source text: as §1, §2

The next data set deals with Large crabgrass. The data set is described as above. The data set is classed as in vivo, Digitaria sanguinales (L.) Scop. The note with it: Large crabgrass, postemergence, greenhouse, three weeks, 0-100 scale.
Source text: as §1, §2

The test system of a further data set is Annual bluegrass. The description is as above. The data set is classed as in vivo, Poa annua L. The note with it: Annual bluegrass, postemergence, greenhouse, three weeks, 0-100 scale.
Source text: as §1, §2

A further data set concerns Chickweed. The description is as above. The data set is classed as in vivo, Stellaria media (L.) Vill. As to conditions: Chickweed, postemergence, greenhouse, three weeks, 0-100 scale.
Source text: as §1, §2

For the next data set, the system named is Bermudagrass. Described as above. The data set is classed as in vivo, Cynodon dactylon (L.) Pers. The note with it: Bermudagrass, postemergence, greenhouse, three weeks, 0-100 scale.
Source text: as §1
Plants of the turf grass species: zoysia (Zoysia japonica Steud.), bermudagrass (Cynodon dactylon (L.) Pers.), tall fescue (Festuca arundinacea Shreib.), creeping bentgrass (Agrostis stoonoifera L.), perennial ryegrass (Lolium perenne L.) and hard fescue (Festuca species) were grown under greenhouse conditions for four months. Plants were clipped as needed to plant heights of 5-10 cm. […] Herbicide mixtures were formulated, dissolved/dispersed in water containing 0.25% non-ionic surfactant, and sprayed postemergence to these turf grasses and weeds. Treated plants were grown under greenhouse conditions for three weeks before visual evaluations of plant responses were recorded.

Setting [2] is: herbicide 80 g ai/ha + Compound 1 125 g ai/ha.
Setting [3] is: herbicide 200 g ai/ha + Compound 1 125 g ai/ha.

For the compound `COC(=O)c1ccccc1S(=O)(=O)NC(=O)Nc1nc(C)nc(OC)n1` [Metsulfuron-methyl, metsulfuron-methyl], the “Observed Response, Herbicide mixture with Compound 1” value (“Observed Response, Herbicide mixture” below) in the data set with Goosegrass (setting [2]) was determined as 0; in the data set with Henbit (setting [2]) it was 100; in the data set on Purple nutsedge (setting [2]) it was 20; with Dandelion (setting [2]), 100; with Venice mallow (setting [2]), 100; with Large crabgrass (setting [2]), 0. Besides, the entries for the “Observed Response, Herbicide mixture” value with Annual bluegrass (setting [2]) and with Chickweed (setting [2]) were 50 and 100, respectively. Besides, the “Observed Response, Herbicide alone” value stood at 50 with Goosegrass (herbicide 80 g ai/ha); 100 in the data set on Henbit (herbicide 80 g ai/ha); 60 in the data set on Purple nutsedge (herbicide 80 g ai/ha); 100 with Dandelion (herbicide 80 g ai/ha); 99 in data set [1]; 100 with Venice mallow (herbicide 80 g ai/ha). Further, the “Observed Response, Herbicide alone” value in the data set with Large crabgrass (herbicide 80 g ai/ha) was 60; in the data set on Annual bluegrass (herbicide 80 g ai/ha), 80; in the data set on Chickweed (herbicide 80 g ai/ha), 100.

Regarding `Nc1nc(C2CC2)nc(C(=O)[O-])c1Cl.[K+]` [Aminocyclopyrachlor-potassium, aminocyclopyrachlor], the “Observed Response, Herbicide mixture” value is on record as 0 in the data set with Goosegrass (setting [3]); 100 in the data set with Henbit (setting [3]); 40 in the data set on Purple nutsedge (setting [3]); 100 in the data set on Dandelion (setting [3]); 98 with Venice mallow (setting [3]); 0 in the data set on Bermudagrass (setting [3]). Further, the “Observed Response, Herbicide mixture” value stood at 70 in the data set with Large crabgrass (setting [3]), 0 in the data set on Annual bluegrass (setting [3]) and 100 in the data set with Chickweed (setting [3]). Further, the “Observed Response, Herbicide alone” value stood at 50 with Goosegrass (herbicide 200 g ai/ha); 100 in the data set on Henbit (herbicide 200 g ai/ha); 40 in the data set with Purple nutsedge (herbicide 200 g ai/ha); 100 with Dandelion (herbicide 200 g ai/ha); 100 in the data set on Venice mallow (herbicide 200 g ai/ha); 20 in the data set with Bermudagrass (herbicide 200 g ai/ha). The “Observed Response, Herbicide alone” value with Large crabgrass (herbicide 200 g ai/ha) is listed as 80; in the data set on Annual bluegrass (herbicide 200 g ai/ha), 20; in the data set on Chickweed (herbicide 200 g ai/ha) it was 100.
